Patent publication US20100311683A1, “CYTIDINE ANALOGS FOR TREATMENT OF MYELODYSPLASTIC SYNDROMES” (priority 2007, published 2010)
Where two headings read alike, the source gives them in different places.

Columns and labels:
[1] = test system: patients with hematologic disorders, predominantly low-risk MDS; experiment: AVIDA longitudinal registry of patients receiving azacitidine (transfusion independence); format: in vivo, human
Description: The study assessed usage patterns and transfusion requirements in patients enrolled in AVIDA, a longitudinal registry of patients with hematologic disorders receiving azacitidine, to further the understanding of current azacitidine treatment patterns in the community, identify common care procedures and concomitant treatments, and document transfusion requirements. Baseline demographics and disease characteristics were obtained at enrollment.

[2] = test system: patients older than 55 years of age with AML; settings: patients older than 55 years with AML, prior retrospective analysis; cited from earlier work
MDS patients = settings: for Grade 3/4 AE: Anemia / Grade 3/4 AE: Candida Sepsis / Grade 3/4 AE: Cellulitis / Grade 3/4 AE: Epistaxis / Grade 3/4 AE: Febrile neutropenia / Grade 3/4 AE: GI hemorrhage / Grade 3/4 AE: Hematologic Disorders / Grade 3/4 AE: Hemorrhagic Events / Grade 3/4 AE: Hemorrhagic anemia / Grade 3/4 AE: Infections / Grade 3/4 AE: Leukopenia / Grade 3/4 AE: Neutropenia / Grade 3/4 AE: Pneumonia / Grade 3/4 AE: Rectal hemorrhage / Grade 3/4 AE: Thrombocytopenia / Grade 3/4 AE: Urinary tract infection / Grade 3/4 AE: ≥1 Adverse Event: N=50

SMILES: Nc1ncn([C@@H]2O[C@H](CO)[C@@H](O)[C@H]2O)c(=O)n1 [azacitidine, 4-amino-1-β-D-ribofuranosyl-1,3,5-triazin-2(1H)-one]
- patients with a history of transfusions who achieved transfusion-independence ([1]; 16/43, at least 2 cycles of azacitidine): 37%
- patients without a history of transfusion who achieved transfusion independence ([1]; 22/27, at least 2 cycles of azacitidine): 81%
- median cycles to transfusion independence ([1]; patients with a history of transfusions): 6 cycles
- median cycles to transfusion independence ([1]; patients without a history of transfusion): 4 cycles
- overall response rate [2]: 60%
- FAB low-risk patients RBC transfusion independent at baseline who remained independent during the study (MDS patients; AZA 5 (75 mg/m2/d x5d)): 64%
- RBC transfusion-dependent patients who achieved and retained independence at the end of cycle 6 (MDS patients; AZA 5 (75 mg/m2/d x5d)): 63%
- evaluable patients RBC transfusion independent at baseline who remained independent during the study (MDS patients; AZA 5 (75 mg/m2/d x5d)): 68%
- mean duration of RBC transfusion independence (MDS patients; AZA 5 (75 mg/m2/d x5d)): 109 days
- onset of HI within the first 3 cycles (MDS patients; AZA 5 (75 mg/m2/d x5d)): 96%
- patients with at least 1 treatment-emergent AE that led to study discontinuation (MDS patients; AZA 5 (75 mg/m2/d x5d)): 14%
- patients with bilineage HI (MDS patients; AZA 5 (75 mg/m2/d x5d)): 10%
- patients with serious AEs (MDS patients; AZA 5 (75 mg/m2/d x5d)): 30%
- Any HI (major and minor) (MDS patients; AZA 5 (75 mg/m2/d x5d), N=49): 27 (55) [40, 69] %
- Erythroid Major HI (IWG 2000), evaluable patients (MDS patients; AZA 5 (75 mg/m2/d x5d), N=49): 18 (37) [23, 52] %
- Erythroid Minor HI (MDS patients; AZA 5 (75 mg/m2/d x5d), N=49): 1 (2) [0.1, 11] %
- Neutrophil Major HI (MDS patients; AZA 5 (75 mg/m2/d x5d), N=49): 4 (8) [40, 100] %
- Neutrophil Minor HI (MDS patients; AZA 5 (75 mg/m2/d x5d), N=49): 2 (4) [0.5, 14] %
- Platelet Major HI (MDS patients; AZA 5 (75 mg/m2/d x5d), N=49): 9 (18) [9, 32] %
- Platelet Minor HI (MDS patients; AZA 5 (75 mg/m2/d x5d), N=49): 2 (4) [0.5, 14] %
- Grade 3/4 AE: Anemia (MDS patients; AZA 5 (75 mg/m2/d x5d)): 5 (10) %
- Grade 3/4 AE: Candida Sepsis (MDS patients; AZA 5 (75 mg/m2/d x5d)): 1 (2) %
- Grade 3/4 AE: Cellulitis (MDS patients; AZA 5 (75 mg/m2/d x5d)): 1 (2) %
- Grade 3/4 AE: Epistaxis (MDS patients; AZA 5 (75 mg/m2/d x5d)): 0%
- Grade 3/4 AE: Febrile neutropenia (MDS patients; AZA 5 (75 mg/m2/d x5d)): 1 (2) %
- Grade 3/4 AE: GI hemorrhage (MDS patients; AZA 5 (75 mg/m2/d x5d)): 0%
- Grade 3/4 AE: Hematologic Disorders (MDS patients; AZA 5 (75 mg/m2/d x5d)): 17 (34) %
- Grade 3/4 AE: Hemorrhagic Events (MDS patients; AZA 5 (75 mg/m2/d x5d)): 1 (2) %
- Grade 3/4 AE: Hemorrhagic anemia (MDS patients; AZA 5 (75 mg/m2/d x5d)): 1 n (%)
- Grade 3/4 AE: Infections (MDS patients; AZA 5 (75 mg/m2/d x5d)): 5 (10) %
- Grade 3/4 AE: Leukopenia (MDS patients; AZA 5 (75 mg/m2/d x5d)): 4 (8) %
- Grade 3/4 AE: Neutropenia (MDS patients; AZA 5 (75 mg/m2/d x5d)): 11 (22) %
- Grade 3/4 AE: Pneumonia (MDS patients; AZA 5 (75 mg/m2/d x5d)): 1 (2) %
- Grade 3/4 AE: Rectal hemorrhage (MDS patients; AZA 5 (75 mg/m2/d x5d)): 0%
- Grade 3/4 AE: Thrombocytopenia (MDS patients; AZA 5 (75 mg/m2/d x5d)): 6 (12) %
- Grade 3/4 AE: Urinary tract infection (MDS patients; AZA 5 (75 mg/m2/d x5d)): 0%
- Grade 3/4 AE: ≥1 Adverse Event (MDS patients; AZA 5 (75 mg/m2/d x5d)): 29 (58) %
- onset of IWG-defined HI in Cycle 1 (MDS patients; AZA 5 (75 mg/m2/d x5d), n=28): 15 (54) %
- onset of IWG-defined HI in Cycle 2 (MDS patients; AZA 5 (75 mg/m2/d x5d), n=28): 10 (36) %
- onset of IWG-defined HI in Cycle 3 (MDS patients; AZA 5 (75 mg/m2/d x5d), n=28): 2 (7) %
- onset of IWG-defined HI in Cycle 4 (MDS patients; AZA 5 (75 mg/m2/d x5d), n=28): 1 (4) %
- onset of IWG-defined HI in Cycle 5 (MDS patients; AZA 5 (75 mg/m2/d x5d), n=28): 0%
- onset of IWG-defined HI in Cycle 6 (MDS patients; AZA 5 (75 mg/m2/d x5d), n=28): 0%
- FAB low-risk patients RBC transfusion independent at baseline who remained independent during the study (MDS patients; AZA 5-2-2 (75 mg/m2/d)): 75%
- RBC transfusion-dependent patients who achieved and retained independence at the end of cycle 6 (MDS patients; AZA 5-2-2 (75 mg/m2/d)): 100%
- evaluable patients RBC transfusion independent at baseline who remained independent during the study (MDS patients; AZA 5-2-2 (75 mg/m2/d)): 67%
- mean duration of RBC transfusion independence (MDS patients; AZA 5-2-2 (75 mg/m2/d)): 135 days
- onset of HI within the first 3 cycles (MDS patients; AZA 5-2-2 (75 mg/m2/d)): 87%
- patients with at least 1 treatment-emergent AE that led to study discontinuation (MDS patients; AZA 5-2-2 (75 mg/m2/d)): 18%
- patients with bilineage HI (MDS patients; AZA 5-2-2 (75 mg/m2/d)): 11%
- patients with serious AEs (MDS patients; AZA 5-2-2 (75 mg/m2/d)): 54%
- Any HI (major and minor) (MDS patients; AZA 5-2-2 (75 mg/m2/d), N=46): 20 (44) [29, 59] %
- Erythroid Major HI (IWG 2000), evaluable patients (MDS patients; AZA 5-2-2 (75 mg/m2/d), N=46): 15 (33) [20, 48] %
- Erythroid Minor HI (MDS patients; AZA 5-2-2 (75 mg/m2/d), N=46): 1 (2) [0.1, 12] %
- Neutrophil Major HI (MDS patients; AZA 5-2-2 (75 mg/m2/d), N=46): 3 (7) [29, 100] %
- Neutrophil Minor HI (MDS patients; AZA 5-2-2 (75 mg/m2/d), N=46): 0 [0, 8] %
- Platelet Major HI (MDS patients; AZA 5-2-2 (75 mg/m2/d), N=46): 10 (22) [11, 36] %
- Platelet Minor HI (MDS patients; AZA 5-2-2 (75 mg/m2/d), N=46): 0 [0, 8] %
- Grade 3/4 AE: Anemia (MDS patients; AZA 5-2-2 (75 mg/m2/d)): 12 (24) %
- Grade 3/4 AE: Candida Sepsis (MDS patients; AZA 5-2-2 (75 mg/m2/d)): 0%
- Grade 3/4 AE: Cellulitis (MDS patients; AZA 5-2-2 (75 mg/m2/d)): 2 (4) %
- Grade 3/4 AE: Epistaxis (MDS patients; AZA 5-2-2 (75 mg/m2/d)): 1 (2) %
- Grade 3/4 AE: Febrile neutropenia (MDS patients; AZA 5-2-2 (75 mg/m2/d)): 4 (8) %
- Grade 3/4 AE: GI hemorrhage (MDS patients; AZA 5-2-2 (75 mg/m2/d)): 1 (2) %
- Grade 3/4 AE: Hematologic Disorders (MDS patients; AZA 5-2-2 (75 mg/m2/d)): 33 (66) %
- Grade 3/4 AE: Hemorrhagic Events (MDS patients; AZA 5-2-2 (75 mg/m2/d)): 4 (8) %
- Grade 3/4 AE: Hemorrhagic anemia (MDS patients; AZA 5-2-2 (75 mg/m2/d)): 0 n (%)
- Grade 3/4 AE: Infections (MDS patients; AZA 5-2-2 (75 mg/m2/d)): 11 (22) %
- Grade 3/4 AE: Leukopenia (MDS patients; AZA 5-2-2 (75 mg/m2/d)): 7 (14) %
- Grade 3/4 AE: Neutropenia (MDS patients; AZA 5-2-2 (75 mg/m2/d)): 21 (42) %
- Grade 3/4 AE: Pneumonia (MDS patients; AZA 5-2-2 (75 mg/m2/d)): 0%
- Grade 3/4 AE: Rectal hemorrhage (MDS patients; AZA 5-2-2 (75 mg/m2/d)): 0%
- Grade 3/4 AE: Thrombocytopenia (MDS patients; AZA 5-2-2 (75 mg/m2/d)): 13 (26) %
- Grade 3/4 AE: Urinary tract infection (MDS patients; AZA 5-2-2 (75 mg/m2/d)): 0%
- Grade 3/4 AE: ≥1 Adverse Event (MDS patients; AZA 5-2-2 (75 mg/m2/d)): 42 (84) %
